The test system of data set [1] is Vero E6 cells.
The subject of data set [2] is Ebola GP in lipid rafts of 293T cells. The data set is classed as cell-based, human.
The test system of data set [3] is EBOV infection of Vero E6 cells. The data set is classed as cell-based, Ebola virus.

Consider nystatin, for which the “general cytotoxic effect, trypan blue exclusion” value in data set [1] was “viable”.

On to methyl-β-cyclodextrin, for which the “association of Ebola GP with rafts (detergent insoluble fraction)” value in data set [2] is recorded as “almost complete removal of Ebola GP from rafts”. As for `CCCCC[C@@H](O)[C@H]1C(=O)O[C@H](C)[C@@H](O)/C=C/C=C/C=C/C=C/C=C(\C)[C@@H](O)C[C@H](O)C[C@H](O)C[C@H](O)C[C@H](O)C[C@H](O)C[C@@H]1O` [filipin], in data set [3], the “EBOV infection, viral titer 48 hour post infection” value was “significant inhibition of EBOV infection” and the “virus production after recovery from drug treatment” value was “could produce large amounts of virus”. Moreover, in data set [1], the “general cytotoxic effect, trypan blue exclusion” value is “viable”.

(Values after patent publication US7682618B2 (priority 2001, dated 2010).)
